In patent publication US20160039802A1, “3-PYRIMIDIN-4-YL-OXAZOLIDIN-2-ONES AS INHIBITORS OF MUTANT IDH” (NOVARTIS AG, priority 2013, published 2016):

Molecular target: T1, Mutant IDH1 R132H (Homo sapiens, UniProt O75874, R132H)
T1 construct: His6 with PreScission site (N, cleaved yes); made in house; host or cells: E. coli Rosetta 2(DE3)
Assay: Mutant IDH1 biochemical assay: LC-MS detection of 2-HG; also: mIDH R132H 0.25 nM, 5 µM NADPH
Details: mIDH R132H […], 5 uM NADPH, 100 uM alpha-KG, 45 minutes incubation; range where run multiple times
From the text: Mutant IDH1 biochemical Sssay: LC-MS Detection of 2-HG.

T1 sequence (O75874 whole entry R132H): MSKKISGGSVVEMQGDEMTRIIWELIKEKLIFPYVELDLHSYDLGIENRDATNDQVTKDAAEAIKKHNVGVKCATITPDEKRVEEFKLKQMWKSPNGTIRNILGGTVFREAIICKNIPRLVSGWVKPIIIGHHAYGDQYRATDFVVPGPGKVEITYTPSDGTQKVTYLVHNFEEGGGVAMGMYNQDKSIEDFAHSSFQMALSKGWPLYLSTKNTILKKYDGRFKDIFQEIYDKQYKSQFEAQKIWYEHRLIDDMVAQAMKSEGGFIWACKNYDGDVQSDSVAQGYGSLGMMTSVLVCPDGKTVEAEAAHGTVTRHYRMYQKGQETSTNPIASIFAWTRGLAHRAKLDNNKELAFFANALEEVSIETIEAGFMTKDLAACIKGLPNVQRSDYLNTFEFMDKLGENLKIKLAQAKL

| IC50 | Compound |
| --- | --- |
| 703 nM | C[C@H](Nc1nccc(N2C(=O)OCC2(C)C2CC2)n1)c1ccc(CN2CCN(C)CC2)cc1 (single isomer, unassigned) [Example 47] |
| 2660 nM | C[C@H](Nc1nccc(N2C(=O)OCC2(C)C2CC2)n1)c1ccc(CN2CCN(C)CC2)cc1 (single isomer, unassigned) [Example 48] |
| 2520 nM | CC(Nc1nccc(N2C(=O)OC[C@]2(C)C2CC2)n1)c1nc(-c2ccc(Cl)cc2)no1 (single isomer, unassigned) [Example 49] |
| 3160 to 3260 nM | CC(Nc1nccc(N2C(=O)OC[C@@]2(C)C2CC2)n1)c1nc(-c2ccc(Cl)cc2)no1 (single isomer, unassigned) [Example 51] |
| 32.6 to 54 nM | CC(Nc1nccc(N2C(=O)OC[C@@]2(C)C2CC2)n1)c1nc(-c2ccc(Cl)cc2)no1 (single isomer, unassigned) [Example 52] |
| > 5000 nM | Cc1cc(-c2cnc(C(C)Nc3nccc(N4C(=O)OC[C@]4(C)C4CC4)n3)nc2)ccc1F (single isomer, unassigned) [Example 54] |
| 77.9 nM | C[C@H](Nc1nccc(N2C(=O)OCC2(C)C2CC2)n1)c1ccc(CN2CCN(C)C(C)(C)C2)cc1 (single isomer, unassigned) [Example 55] |
| 527 nM | C[C@H](Nc1nccc(N2C(=O)OCC2(C)C2CC2)n1)c1ccc(CN2CCN(C)C(C)(C)C2)cc1 (single isomer, unassigned) [Example 56] |
| 267 nM | C[C@H](Nc1nccc(N2C(=O)OC[C@]2(C)C2CC2)n1)c1ccc(CN2CCC(C)(O)CC2)c(F)c1 [Example 31, (S)-4-cyclopropyl-3-(2-(((S)-1-(3-fluoro-4-((4-hydroxy-4-methylpiperidin-1-yl)methyl)phenyl)ethyl)amino)pyrimidin-4-yl)-4-methyloxazolidin-2-one] |
| 13.3 nM | C[C@H](Nc1nccc(N2C(=O)OC[C@]2(C)C2CC2)n1)c1ccc(CN2CCC(O)(C(F)(F)F)CC2)c(F)c1 [Example 32, (S)-4-cyclopropyl-3-(2-(((S)-1-(3-fluoro-4-((4-hydroxy-4-(trifluoromethyl)piperidin-1-yl)methyl)phenyl)ethyl)amino)pyrimidin-4-yl)-4-methyloxazolidin-2-one] |

Molecular target: T2, IDH1 (R132H) mutant (Homo sapiens, UniProt O75874, R132H)
T2 construct: His6 with PreScission site (N, cleaved yes); made in house; host or cells: E. coli Rosetta 2(DE3)
T2 sequence (O75874 whole entry R132H): as above
Assay: Fluorescence biochemical assay (NADPH oxidation)
Details: mIDH R132H 10 nM, 10 μM NADPH, 100 μM α-KG; range where run multiple times
Description: The IDH1 (R132H) mutant catalyzes the reduced form of NADP+ (NADPH) and α-ketoglutarate (α-KG) to form nicotinamide adenine dinucleotide phosphate (NADP+) and R(−)-2-hydroxyglutarate (2HG). […] Reactions were monitored using the Perkin-Elmer Envision, Model 2101. […] The final reaction mixture contained 2.5% DMSO and test compounds with concentrations ranging 0.0000008-25 μM. The IDH1 (R132H) enzyme was used at a final concentration of 10 nM. Curve fitting for dose response […] determinations was done in the Helios module of the software package DAVID. The 4-parameter logistic model was used: y=min+((max−min)/1+(x/IC50)^shape)

| IC50 | Compound |
| --- | --- |
| 365 nM | C[C@H](Nc1nc(F)cc(N2C(=O)OC[C@@H]2C2CC2)n1)c1ccccc1 [Example 1, (S)-4-cyclopropyl-3-(6-fluoro-2-((S)-1-phenylethylamino)pyrimidin-4-yl)oxazolidin-2-one] |
| 316 nM | C[C@H](Nc1nc(Cl)cc(N2C(=O)OC[C@@H]2C2CC2)n1)c1ccccc1 [Example 2, (S)-3-(6-chloro-2-((S)-1-phenylethylamino)pyrimidin-4-yl)-4-cyclopropyloxazolidin-2-one] |
| 24.8 nM | C[C@H](Nc1nc(Cl)cc(N2C(=O)OC[C@@H]2C2CC2)n1)c1nnc(-c2ccc(Cl)cc2)s1 [Example 4, (S)-3-(6-chloro-2-(((S)-1-(5-(4-chlorophenyl)-1,3,4-thiadiazol-2-yl)ethyl)amino)pyrimidin-4-yl)-4-cyclopropyloxazolidin-2-one] |
| 33.2 nM | C[C@H](Nc1nc(Cl)cc(N2C(=O)OC[C@@H]2C2CC2)n1)c1cnn(-c2ccc(Cl)cc2)c1 [Example 5, (S)-3-(6-chloro-2-(((S)-1-(1-(4-chlorophenyl)-1H-pyrazol-4-yl)ethyl)amino)pyrimidin-4-yl)-4-cyclopropyloxazolidin-2-one] |
| 934 nM | C[C@H](Nc1nc(Cl)cc(N2C(=O)OC[C@@H]2C2CC2)n1)c1cnc(N2CCOCC2)s1 [Example 6, (S)-3-(6-chloro-2-(((S)-1-(2-morpholinothiazol-5-yl)ethyl)amino)pyrimidin-4-yl)-4-cyclopropyloxazolidin-2-one] |
| 323 nM | Cc1cc(N2C(=O)OC[C@@H]2C2CC2)nc(N[C@H](C)c2cn(-c3ccc(Cl)cc3)nn2)n1 [Example 12, (S)-3-(2-(((R)-1-(1-(4-chlorophenyl)-1H-1,2,3-triazol-4-yl)ethyl)amino)-6-methylpyrimidin-4-yl)-4-cyclopropyloxazolidin-2-one] |
| 191 nM | Cc1ccc(-c2ncc([C@H](C)Nc3nc(C)cc(N4C(=O)OC[C@@H]4C4CC4)n3)s2)cn1 [Example 13, (S)-4-cyclopropyl-3-(6-methyl-2-(((S)-1-(2-(6-methylpyridin-3-yl)thiazol-5-yl)ethyl)amino)pyrimidin-4-yl)oxazolidin-2-one] |
| 49.1 nM | C[C@H](Nc1nccc(N2C(=O)OC[C@@H]2C2CC2)n1)c1cnc(-c2ccc(C(F)(F)F)nc2)s1 [Example 14, (S)-4-cyclopropyl-3-(2-(((S)-1-(2-(6-(trifluoromethyl)pyridin-3-yl)thiazol-5-yl)ethyl)amino)pyrimidin-4-yl)oxazolidin-2-one] |
| 108 nM | C[C@H](Nc1nccc(N2C(=O)OC[C@@H]2C2CC2)n1)c1cnc(-c2ccnc(C(F)(F)F)c2)s1 [Example 15, (S)-4-cyclopropyl-3-(2-(((S)-1-(2-(2-(trifluoromethyl)pyridin-4-yl)thiazol-5-yl)ethyl)amino)pyrimidin-4-yl)oxazolidin-2-one] |
| 29.2 nM | C[C@H](Nc1nccc(N2C(=O)OC[C@@H]2C2CC2)n1)c1cnc(-c2ccc(C(F)F)cc2)s1 [Example 16, (S)-4-cyclopropyl-3-(2-(((S)-1-(2-(4-(difluoromethyl)phenyl)thiazol-5-yl)ethyl)amino)pyrimidin-4-yl)oxazolidin-2-one] |
| 169 nM | C[C@H](Nc1nccc(N2C(=O)OC[C@@H]2C2CC2)n1)c1ccn(-c2ccc(C(F)(F)F)nc2)n1 [Example 17, (S)-4-cyclopropyl-3-(2-(((S)-1-(1-(6-(trifluoromethyl)pyridin-3-yl)-1H-pyrazol-3-yl)ethyl)amino)pyrimidin-4-yl)oxazolidin-2-one] |
| 1200 nM | C[C@H](Nc1ncc(F)c(N2C(=O)OC[C@@H]2C2CC2)n1)c1cnc(OCC(F)(F)F)c(Cl)c1 [Example 21, (S)-3-(2-((S)-1-(5-chloro-6-(2,2,2-trifluoroethoxy)pyridin-3-yl)ethylamino)-5-fluoropyrimidin-4-yl)-4-cyclopropyloxazolidin-2-one] |
| 1140 nM | C[C@H](Nc1ncc(F)c(N2C(=O)OC[C@@H]2C2CC2)n1)c1cnc(C(C)(F)F)c(Cl)c1 [Example 22, (S)-3-(2-((S)-1-(5-chloro-6-(1,1-difluoroethyl)pyridin-3-yl)ethylamino)-5-fluoropyrimidin-4-yl)-4-cyclopropyloxazolidin-2-one] |
| 1370 nM | C[C@H](Nc1nccc(N2C(=O)OC[C@@H]2C2CC2)n1)c1ccccc1 [Example 23, (S)-4-cyclopropyl-3-(2-((S)-1-phenylethylamino)pyrimidin-4-yl)oxazolidin-2-one] |
| 1190 nM | C[C@H](Nc1ncc(F)c(N2C(=O)OC[C@@H]2C2CC2)n1)c1ccccc1 [Example 24, (S)-4-cyclopropyl-3-(5-fluoro-2-((S)-1-phenylethylamino)pyrimidin-4-yl)oxazolidin-2-one] |
| 372 nM | C[C@H](Nc1nccc(N2C(=O)OC[C@@H]2C2CC2)n1)c1cnc(OCC(F)(F)F)c(Cl)c1 [Example 25, (S)-3-(2-((S)-1-(5-chloro-6-(2,2,2-trifluoroethoxy)pyridin-3-yl)ethylamino)pyrimidin-4-yl)-4-cyclopropyloxazolidin-2-one] |
| 349 nM | C[C@H](Nc1nc(Cl)cc(N2C(=O)OC[C@@H]2C2CC2)n1)c1cn(-c2ccc(Cl)cc2)cn1 [Example 26, (S)-3-(6-chloro-2-(((S)-1-(1-(4-chlorophenyl)-1H-imidazol-4-yl)ethyl)amino)pyrimidin-4-yl)-4-cyclopropyloxazolidin-2-one] |
| 62.7 nM | C[C@H](Nc1nccc(N2C(=O)OC[C@@H]2C2CC2)n1)c1nc(-c2ccc(Cl)cc2)no1 [Example 28, (S)-3-(2-((S)-1-(3-(4-chlorophenyl)-1,2,4-oxadiazol-5-yl)ethylamino)pyrimidin-4-yl)-4-cyclopropyloxazolidin-2-one] |
| 124 nM | C[C@H](Nc1ncc(F)c(N2C(=O)OC[C@@H]2C2CC2)n1)c1nc(-c2ccc(Cl)cc2)no1 [Example 29, (S)-3-(2-((S)-1-(3-(4-chlorophenyl)-1,2,4-oxadiazol-5-yl)ethylamino)-5-fluoropyrimidin-4-yl)-4-cyclopropyloxazolidin-2-one] |
| 33 nM | C[C@H](Nc1nccc(N2C(=O)OC[C@]2(C)C2CC2)n1)c1ccc(CN2CCC(N3CCOCC3)CC2)c(F)c1 [Example 67, (S)-4-cyclopropyl-3-(2-(((S)-1-(3-fluoro-4-((4-morpholinopiperidin-1-yl)methyl)phenyl)ethyl)amino)pyrimidin-4-yl)-4-methyloxazolidin-2-one] |
| 96 nM | C[C@H](Nc1nccc(N2C(=O)OC[C@]2(C)C2CC2)n1)c1ccc(CN2CCC(N3CCOCC3)CC2)cc1 [Example 68, (S)-4-cyclopropyl-4-methyl-3-(2-(((S)-1-(4-((4-morpholinopiperidin-1-yl)methyl)phenyl)ethyl)amino)pyrimidin-4-yl)oxazolidin-2-one] |
| 25 nM | C[C@H](Nc1nccc(N2C(=O)OC[C@@H]2C2CC2)n1)c1ccc(CN2CCC(N(C)C)C(F)(F)C2)c(F)c1 (stereo partly drawn) [Example 69, (4S)-4-cyclopropyl-3-(2-(((1S)-1-(4-((4-(dimethylamino)-3,3-difluoropiperidin-1-yl)methyl)-3-fluorophenyl)ethyl)amino)pyrimidin-4-yl)oxazolidin-2-one] |
